Consider four molecules from patent US20260335223A1, “Topical Copolymer Formulations for Hydrophobic Drug Delivery” (1376683 B.C. LTD, priority 2023, published 2026).

The structures appear in SMILES notation. Values after ≈ are worked out from the molar mass of the structure shown.

The conditions of data set [1]: background statement; cited from earlier work.
For data set [2] the following is noted: diblock copolymer micelles, background; cited from earlier work.
In another data set the test system is osteoarthritis. Put plainly: Therapeutic efficacy case reports, osteoarthritis (VAS pain). Type of data set: in vivo, human. On the procedure:
(§1) In all cases, therapeutic efficacy studies were carried out with volunteer participants under the supervision of a healthcare practitioner. In all cases, informed consent was obtained. Participants were blinded to the DBC content of the gel samples provided. Participants were offered samples of control cannabinoid gel (no DBC) and asked to apply to the affected area twice daily and as needed for one week. Participants were told to maintain adherence to any prescribed medications while using the cannabinoid gel. Participants were contacted immediately after the one week treatment period for assessment. Following a washout period ranging from 4 to 12 weeks, participants were offered samples of DBC cannabinoid gel and asked to apply in the same manner, twice daily and as needed for one week, while maintaining adherence to any prescribed medications. Participants were contacted immediately after the one week treatment period for assessment. Efficacy was assessed using average daily 10-point visual analogue scale (VAS) pain score prior to beginning treatment and immediately after treatment. Participants were also asked to report all adverse effects experienced, if any, such as skin irritation, skin rash, localized or diffuse discomfort or pain, dizziness, fatigue, impaired concentration, feelings of euphoria or dysphoria, or other psychotropic effects.

Data set [3] is described as follows: Curcumin release from PVA film. Type of data set: physicochemical. To be noted: for Curcumin released from PVA film: by 2 hours. The protocol: The 88% hydrolyzed version of PVA was used with a molecular weight of between 100000 and 150000 daltons. PVA was dissolved in water at 10% w/v by heating to 90 °C for one hour and then cooled. Separately, 40 mg of diblock copolymer DBC3333 was weighed into a glass vial and 100 μL of curcumin solution (10 mg/mL in ethanol) was added to 2 mL of the 10% PVA solution with mixing to give the non diblock casting solutions. Alternatively, 100 μL of the curcumin solution was added to 40 mg of diblock copolymer to dissolve it and then this was mixed with 2 mL of PVA solution. These give PVA films containing 20% diblock with approximately 0.5% curcumin (1 mg curcumin per film). The films were cast in small petri dishes and air dried at 37 °C for 4 hours.
This observational solubilization experiment added 2 mL of water to the film at t=0 and then at 5, 10, 25 mins the liquid was removed into a test tube for observation.
A second set of the same films were prepared and used for a drug release experiment whereby 10 mL of PBS (10 mM pH 7.4) was added to the films and at specified time points, 100 μL of solution was collected and added to 400 μL of water. The absorbance of these solutions was then measured at 420 nm by uv/vis absorbance.

The nature of data set [4]: Limit of aqueous solubility with/without PCL25 (HPLC or UV/VIS). Conditions: water. It counts as physicochemical. On the procedure: Aqueous solubility studies involving diblock copolymer PCL25 (63:37 MePEG:PCL MW 7900 Da) were carried out as follows. 1 mg of drug (either paclitaxel, capsaicin or curcumin) was added to glass vials, designated as either “control” or “diblock copolymer”. Diblock copolymer was omitted from control vials and 100 mg PCL25 was added to diblock copolymer vials. The contents of all vials were then dissolved in 300 microlitres of acetonitrile. The contents were dried at 60 °C for two hours and then 1 mL of warm water (40 °C) was added with vortexing for five minutes. To determine the limit of drug solubility, the contents of each vial were then placed in a microcentrifuge tube and centrifuged at 14000×g for 3 minutes to sediment any undissolved solids. The supernatant was diluted 50% in acetonitrile and the drug was quantitated by HPLC for paclitaxel and capsaicin or by UV/VIS spectrometry (420 nm) for curcumin after 100 fold dilution in acetonitrile for this drug. HPLC conditions were detection at 228 nm for both drugs and a mobile phase of 60:40 (paclitaxel) or 50:50 (capsaicin) acetonitrile:water flowing at 1 mL/min. Calibration standard for all drugs were run in acetonitrile.

Data set [5] is described as follows: Skin permeation, Franz diffusion cell. To be noted: topical, with DBC3333 vs formulation without; 3 hours.
Source text: To collect the data illustrated in this Example, fresh pig skin is placed on a Franz diffusion cell and the formulation of interest is applied to the outer skin surface. After three hours the cell is dismantled and the exposed circular area excised. […] The amount of drug in each section is then quantitated and expressed at mass of drug/gram of tissue.
For cannabinoid aqueous gel preparation for skin permeation study and therapeutic efficacy studies, a water-based gel comprised of water, phenoxyethanol, ethylhexyl glycerin, acrylates/C10-30 alkyl acrylate crosspolymer, sodium hydroxide and allantoin, was used as the gel base. Gel base and diblock copolymer were weighed, mixed together and heated using a microwave for 4 seconds. A homogenous gel containing diblock copolymer was achieved via levigation of the mixture. Gel base without diblock copolymer was weighed and used for the control formula. Commercial cannabinoid-containing extracts containing known quantities of cannabinoid were weighed and dissolved in a pre-weighed amount of cacao butter over 45 °C heat. The cacao butter cannabinoid mixture was then weighed and incorporated into the gel base, with or without diblock copolymer, via levigation to produce the final gel samples. Cannabinoid content of the final gel samples was analyzed using HPLC. […] Gel samples were stored in air-tight containers at 4 °C until the time of use.
For carboxymethyl cellulose (CMC) gel and Glaxal® base preparation for skin permeation study of cannabidiol (CBD), curcumin, capsaicin and finasteride, CMC gel was made using medium viscosity CMC as a 2% w/v aqueous solution following overnight stirring. […] For CMC preparations containing DBC, DBC was weighed into a glass vial and a small volume of the drug of interest in acetonitrile:methanol (50:50) was added to dissolve all. The solution was then dried for 2 hours in a warm oven (50 °C). In all cases the ratio of DBC:drug was 95:5. A known weight of CMC gel was then added to the warmed vial containing the dried DBC/drug mixture and vortexed to disperse and dissolve all drug. Glaxal® base was used as received. Glaxal® base containing drug was prepared by first weighing drug and dissolving in a known volume of ethanol or methanol. The ethanol or methanol drug solution was then added to a weighed amount of Glaxal® base followed by levigation of the mixture. For CBD, capsaicin, docetaxel and finasteride, it was not possible to prepare CMC gels without the use of DBC, due to drug insolubility. Therefore Glaxal® base preparations containing these drugs were employed as DBC-free comparison groups (control) for skin permeation studies.
For carboxymethyl cellulose (CMC) gel and Glaxal® base preparation for skin permeation study of docetaxel, 2% CMC gel was prepared as described above. Docetaxel (DTX) 6 mg was weighed into 190 μL of acetonitrile and 10 μL of 3H radiolabeled DTX was added. Then 66 μL (i.e., 2 mg of drug) was pipetted into a vial with 40 mg of DBC to dissolve all. The contents were dried down and 1 mL of warm 2% CMC gel was added with vortexing to dissolve all DBC and drug as a micellar solution. For Glaxal® paste 66 μL of the drug solution was dried down to approximately 20 μL and 1 gram of Glaxal® base added to disperse the drug.
Fresh pig skin was obtained from a butcher and defatted to 5 mm thickness and shaved. 2 cm^2 pieces were cut with scissors and placed on Franz diffusion cells filled with PBS and clamped. 100 mg of each formulation was weighed and placed on top of the tissue and capped. The cells were placed in a 37 °C humid incubator for three hours and then dismantled. The tissue was washed three times with PBS and the centre drug-loaded circle of tissue was cut out with scissors and snap frozen. Tissues were sectioned by cryosectioning into 50 μm cuts pooled into groups of five.
The subject of the next data set is rheumatoid arthritis. Put plainly: Therapeutic efficacy case report, rheumatoid arthritis (VAS pain). It counts as in vivo, human. The protocol:
as §1

As to `CC[C@@]1(O)C(=O)OCc2c1cc1n(c2=O)Cc2cc3ccccc3nc2-1` [camptothecin], in data set [1], the Water solubility was 1 µg/mL. Moreover, in data set [2], the “Formation of drug-loaded micelles” value is on record as “do not form drug-loaded micelles”.

For the molecule `CC(=O)Nc1ccc(O)cc1` [acetaminophen], the “Participant's description of efficacy/pain” value in the data set on osteoarthritis (Case 1) is on record as “little to no pain relief or prevention of pain during or after exercise”.

What is called Solubility is how much of the substance goes into solution per volume. Read a high Solubility as much dissolved substance. `COc1cc(/C=C/C(=O)CC(=O)/C=C/c2ccc(O)c(OC)c2)ccc1O` [Curcumin, curcumin]: the “Curcumin release rate from PVA film” value in data set [3] (DBC3333 20% w/w to PVA vs no diblock) is listed as “much faster”. The “Curcumin released from PVA film” value in data set [3] (DBC3333 20% w/w to PVA) was “all drug released”; in data set [3] (no diblock copolymer, room temperature), 6%. In data set [3] (diblock containing film vs no diblock film), the “Yellow colour in dish (observational solubilization)” value is recorded as “markedly stronger”. Also, the Solubility in data set [4] (control, no diblock copolymer) is less than 1 µg/mL; in data set [4] (with diblock copolymer PCL25 100 mg/mL), 1000 µg/mL (≈ 2710 µM). Moreover, the Skin permeation result in data set [5] is reported as “enhanced skin permeation”.

Regarding `CC(C)Cc1ccc(C(C)C(=O)O)cc1` (stereo not shown) [ibuprofen], the “VAS pain level after as-needed medication” value in the data set on osteoarthritis (Case 1, history, used when pain level reaches 4) was determined as 3. Moreover, the “Participant's description of efficacy” value in the data set with rheumatoid arthritis (Case 4) is given as “mildly effective”. Moreover, the “VAS pain level after ibuprofen 400 mg” value in the data set with rheumatoid arthritis (Case 4, history, from 4) stood at 3.
